#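 Cultured in 96-well plates, cells were exposed to test compound for 48 hours across five concentrations. TGI: concentration producing complete growth inhibition.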
# Assays:
# Test in all cases: growth of human tumour cells (NCI), 48 h
# [1] = test system: A498 renal
# [2] = test system: DMS 273 small cell lung
# [3] = test system: HT29 colon
# [4] = test system: M14 melanoma
# [5] = test system: M19-MEL melanoma
# [6] = test system: MOLT-4 leukemia
# [7] = test system: OVCAR-4 ovarian
# [8] = test system: RXF 393 renal
# [9] = test system: SK-MEL-5 melanoma
# [10] = test system: U251 CNS
SMILES,TGI [1] [mM],TGI [2] [mM],TGI [3] [mM],TGI [4] [mM],TGI [5] [mM],TGI [6] [mM],TGI [7] [mM],TGI [8] [mM],TGI [9] [mM],TGI [10] [mM]
CS(=O)(=O)OCCCNCCCOS(C)(=O)=O,3.63,1.15,4.48,5.05,5.56,2.34,5.36,5.48,3.22,5.46
O=C(NC(=O)c1c(Cl)nc2sccn12)Nc1ccc(Cl)cc1,> 0.0976,> 0.1,> 0.1,> 0.1,> 0.1,> 0.1,> 0.1,0.0762,> 0.1,0.0559
